Experiments:
[1] = target: PI3-kinase p110-delta/p85-alpha (Homo sapiens, UniProt O00329); experiment: Inhibition of N-terminal His6-tagged recombinant full-length human p110delta/untagged recombinant full length p85alpha expressed in baculovirus infected Sf21 cells using phosphatidylinositol as substrate in presence of gamma-32P-ATP after 5 mins by thin layer chromatographic method
[2] = target: PI3-kinase p110-alpha/p85-alpha (Homo sapiens, UniProt P42336); experiment: Inhibition of N-terminal His6-tagged recombinant full-length human p110alpha/untagged recombinant full length human p85alpha expressed in baculovirus infected Sf21 cells using phosphatidylinositol as substrate in presence of gamma-32P-ATP after 5 mins by thin layer chromatographic method
PI3K p110 beta/p85 alpha = PI3K p110 beta/p85 alpha (Homo sapiens, UniProt P42338); experiment: Inhibition of N-terminal His6-tagged recombinant full-length human p110beta/untagged recombinant full length p85alpha expressed in baculovirus infected Sf21 cells using phosphatidylinositol as substrate in presence of gamma-32P-ATP after 5 mins by thin layer chromatographic method
[3] = Antiproliferative activity against Balb/c mouse splenic B cells preincubated for 30 mins followed by LPS or F(ab')2 donkey anti-mouse IgM and recombinant mouse IL4 stimulation measured after 72 hrs by Alamar Blue reduction assay; format: functional, cell-based

PI3-kinase p110-alpha/p85-alpha, sequence (P27986 whole entry): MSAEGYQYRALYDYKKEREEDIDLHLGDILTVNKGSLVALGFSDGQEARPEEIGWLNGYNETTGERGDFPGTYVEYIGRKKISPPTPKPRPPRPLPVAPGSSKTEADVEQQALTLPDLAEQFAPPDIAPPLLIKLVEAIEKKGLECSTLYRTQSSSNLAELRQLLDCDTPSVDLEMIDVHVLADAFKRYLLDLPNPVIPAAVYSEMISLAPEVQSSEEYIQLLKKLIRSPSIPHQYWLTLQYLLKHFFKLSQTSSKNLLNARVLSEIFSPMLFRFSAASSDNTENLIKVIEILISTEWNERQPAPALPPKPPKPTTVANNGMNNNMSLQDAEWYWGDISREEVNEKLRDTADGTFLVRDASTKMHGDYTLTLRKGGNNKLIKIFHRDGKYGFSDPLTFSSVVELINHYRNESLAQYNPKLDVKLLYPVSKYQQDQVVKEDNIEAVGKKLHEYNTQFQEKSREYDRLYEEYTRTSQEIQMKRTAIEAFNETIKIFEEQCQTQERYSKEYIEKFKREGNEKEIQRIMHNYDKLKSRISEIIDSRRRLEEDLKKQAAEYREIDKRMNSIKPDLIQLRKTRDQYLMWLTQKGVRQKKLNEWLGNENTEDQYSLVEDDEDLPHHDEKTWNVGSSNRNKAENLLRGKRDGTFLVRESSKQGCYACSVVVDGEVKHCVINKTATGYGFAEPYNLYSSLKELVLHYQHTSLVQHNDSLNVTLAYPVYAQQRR
PI3-kinase p110-alpha/p85-alpha, sequence (P42336 whole entry): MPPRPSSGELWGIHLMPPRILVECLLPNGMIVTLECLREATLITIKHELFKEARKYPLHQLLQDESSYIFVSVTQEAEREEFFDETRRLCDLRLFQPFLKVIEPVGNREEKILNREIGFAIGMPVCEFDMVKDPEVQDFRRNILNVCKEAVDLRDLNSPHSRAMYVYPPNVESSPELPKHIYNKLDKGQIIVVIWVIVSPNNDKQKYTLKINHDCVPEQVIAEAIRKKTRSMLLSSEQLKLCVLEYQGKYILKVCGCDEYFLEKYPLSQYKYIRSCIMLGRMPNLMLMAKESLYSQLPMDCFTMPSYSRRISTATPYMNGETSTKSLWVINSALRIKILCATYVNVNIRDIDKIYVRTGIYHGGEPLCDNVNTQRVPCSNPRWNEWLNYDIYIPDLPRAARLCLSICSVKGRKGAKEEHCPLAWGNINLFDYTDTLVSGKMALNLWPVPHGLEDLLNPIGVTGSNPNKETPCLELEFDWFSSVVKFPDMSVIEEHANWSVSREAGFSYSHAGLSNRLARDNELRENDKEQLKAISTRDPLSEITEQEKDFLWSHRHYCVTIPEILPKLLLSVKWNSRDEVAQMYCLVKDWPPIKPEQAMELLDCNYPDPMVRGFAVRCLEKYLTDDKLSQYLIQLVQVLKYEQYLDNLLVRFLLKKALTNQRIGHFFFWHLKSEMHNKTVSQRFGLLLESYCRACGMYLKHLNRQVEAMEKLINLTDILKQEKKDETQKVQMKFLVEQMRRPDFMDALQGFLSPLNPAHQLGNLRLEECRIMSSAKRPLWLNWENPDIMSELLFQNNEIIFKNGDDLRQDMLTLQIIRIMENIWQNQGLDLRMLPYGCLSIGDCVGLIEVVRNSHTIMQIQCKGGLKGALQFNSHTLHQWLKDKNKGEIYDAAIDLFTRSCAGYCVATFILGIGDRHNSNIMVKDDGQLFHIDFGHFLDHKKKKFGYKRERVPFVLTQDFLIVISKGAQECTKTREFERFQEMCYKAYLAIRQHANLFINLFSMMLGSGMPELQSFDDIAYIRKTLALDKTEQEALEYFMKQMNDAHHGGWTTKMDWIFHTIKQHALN
PI3-kinase p110-delta/p85-alpha, sequence (P27986 whole entry): as the sequence (P27986 whole entry) above
PI3-kinase p110-delta/p85-alpha, sequence (O00329 whole entry): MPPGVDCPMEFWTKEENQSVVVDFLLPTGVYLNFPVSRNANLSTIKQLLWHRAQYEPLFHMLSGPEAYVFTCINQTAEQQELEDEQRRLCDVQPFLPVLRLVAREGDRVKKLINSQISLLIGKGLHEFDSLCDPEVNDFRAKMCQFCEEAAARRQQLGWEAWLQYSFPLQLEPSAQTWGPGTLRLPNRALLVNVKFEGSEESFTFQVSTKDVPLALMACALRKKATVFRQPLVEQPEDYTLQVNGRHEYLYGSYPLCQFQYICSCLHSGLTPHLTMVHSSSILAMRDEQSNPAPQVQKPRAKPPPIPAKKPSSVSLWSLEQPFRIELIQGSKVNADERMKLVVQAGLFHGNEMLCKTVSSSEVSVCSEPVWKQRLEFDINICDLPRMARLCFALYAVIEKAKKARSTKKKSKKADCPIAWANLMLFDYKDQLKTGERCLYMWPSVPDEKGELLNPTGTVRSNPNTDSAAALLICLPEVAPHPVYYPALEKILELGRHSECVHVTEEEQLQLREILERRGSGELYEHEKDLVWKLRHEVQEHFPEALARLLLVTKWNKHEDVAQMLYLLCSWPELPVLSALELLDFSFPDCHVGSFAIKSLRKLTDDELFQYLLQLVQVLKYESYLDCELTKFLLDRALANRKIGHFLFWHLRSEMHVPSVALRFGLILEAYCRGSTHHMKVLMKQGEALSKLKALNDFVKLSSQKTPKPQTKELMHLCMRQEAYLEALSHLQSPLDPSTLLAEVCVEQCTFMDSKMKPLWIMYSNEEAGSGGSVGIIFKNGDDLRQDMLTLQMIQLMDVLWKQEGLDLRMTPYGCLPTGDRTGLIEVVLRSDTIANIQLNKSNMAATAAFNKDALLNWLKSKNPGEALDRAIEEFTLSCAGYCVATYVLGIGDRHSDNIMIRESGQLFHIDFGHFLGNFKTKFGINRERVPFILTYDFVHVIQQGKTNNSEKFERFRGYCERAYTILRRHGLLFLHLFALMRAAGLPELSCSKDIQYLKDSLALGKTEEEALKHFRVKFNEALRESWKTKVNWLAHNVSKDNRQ
PI3K p110 beta/p85 alpha, sequence (P27986 whole entry): as the sequence (P27986 whole entry) above
PI3K p110 beta/p85 alpha, sequence (P42338 whole entry): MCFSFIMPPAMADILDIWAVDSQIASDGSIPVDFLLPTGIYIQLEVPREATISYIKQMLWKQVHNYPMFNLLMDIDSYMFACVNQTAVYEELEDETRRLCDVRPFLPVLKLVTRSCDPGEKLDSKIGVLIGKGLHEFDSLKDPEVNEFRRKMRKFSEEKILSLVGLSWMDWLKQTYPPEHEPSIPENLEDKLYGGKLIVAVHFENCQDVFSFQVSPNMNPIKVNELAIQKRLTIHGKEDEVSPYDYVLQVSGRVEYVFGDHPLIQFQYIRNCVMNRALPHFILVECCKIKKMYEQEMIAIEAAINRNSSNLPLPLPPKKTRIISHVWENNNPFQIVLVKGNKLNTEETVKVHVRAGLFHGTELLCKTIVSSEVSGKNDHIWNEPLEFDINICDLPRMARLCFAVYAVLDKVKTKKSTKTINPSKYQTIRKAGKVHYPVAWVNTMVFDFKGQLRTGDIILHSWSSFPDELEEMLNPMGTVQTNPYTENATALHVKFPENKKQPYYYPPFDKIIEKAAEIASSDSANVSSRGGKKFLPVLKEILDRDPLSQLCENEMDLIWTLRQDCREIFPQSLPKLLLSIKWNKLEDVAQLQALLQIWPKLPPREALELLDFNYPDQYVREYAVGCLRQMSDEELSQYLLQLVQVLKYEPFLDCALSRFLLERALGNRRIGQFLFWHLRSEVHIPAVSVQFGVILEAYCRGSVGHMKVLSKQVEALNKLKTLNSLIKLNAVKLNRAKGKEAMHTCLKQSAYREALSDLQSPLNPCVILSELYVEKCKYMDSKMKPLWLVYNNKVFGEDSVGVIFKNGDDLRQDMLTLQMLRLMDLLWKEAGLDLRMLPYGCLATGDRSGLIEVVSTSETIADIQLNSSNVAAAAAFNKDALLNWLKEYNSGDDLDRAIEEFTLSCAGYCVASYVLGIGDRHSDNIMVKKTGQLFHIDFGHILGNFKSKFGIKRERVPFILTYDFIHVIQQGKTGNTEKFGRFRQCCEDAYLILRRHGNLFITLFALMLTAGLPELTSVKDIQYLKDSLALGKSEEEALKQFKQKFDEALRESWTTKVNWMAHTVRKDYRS

Structure (SMILES)	IC50 [1] [µM]	IC50 [2] [µM]	IC50 (PI3K p110 beta/p85 alpha) [µM]	EC50 [3] [µM]
Cc1cccc2cc(Cn3nc(-c4cc(O)cc(F)c4)c4c(N)ncnc43)n(C3CC3)c(=O)c12	< 0.1	< 1	< 0.1	< 0.1
Cc1cccc2cc(Cn3nc(I)c4c(N)ncnc43)n(C3CCCCC3)c(=O)c12	< 1	> 10	> 10	< 10
Cc1ccccc1-n1c(Cn2nc(-c3ccn[nH]3)c3c(N)ncnc32)cc2cccc(C)c2c1=O	< 1	> 10	> 10	
Cc1cccc2cc(C(C)Nc3nc(N)nc4[nH]cnc34)n(-c3ccccc3)c(=O)c12 (configuration not stated)			< 0.1	
Cc1cccc2cc(Cn3nc(C#C[C@@H](C)O)c4c(N)ncnc43)n(C3CCCCC3)c(=O)c12	< 0.1	> 10	> 10	< 10
Cc1ccccc1-n1c(Cn2nc(I)c3c(N)ncnc32)cc2ccccc2c1=O	< 1	> 10		< 1
CC(=O)Nc1nc2ccc(-c3nn(Cc4cc5cccc(C)c5c(=O)n4C)c4ncnc(N)c34)cc2s1	< 0.1	< 100	< 1	< 0.1
Cc1cccnc1-n1c(Cn2nc(-c3ccc(F)c(O)c3)c3c(N)ncnc32)cc2cccc(C)c2c1=O	< 0.1	> 10	> 10	< 0.1
Cc1cccc2cc(Cn3nc(I)c4c(N)ncnc43)n(C3CC3)c(=O)c12	< 0.1	< 10	< 10	< 1
Cc1cccc2cc([C@H](C)Nc3nc(F)nc4[nH]cnc34)n(C3CC3)c(=O)c12	< 0.1		< 0.1	
CC(=O)Nc1nc2ccc(-c3nn(Cc4cc5cccc(C)c5c(=O)n4-c4cccc(F)c4)c4ncnc(N)c34)cc2s1	< 0.1		< 10	< 0.1
Cc1cccc2cc(Cn3nc(-c4ccc(F)c(O)c4)c4c(N)ncnc43)n(C3CCCC3)c(=O)c12	< 0.1	> 10	> 10	
CNC(=O)Nc1nc2ccc(-c3nn(Cc4cc5cccc(C)c5c(=O)n4-c4ccccc4C)c4ncnc(N)c34)cc2s1	< 0.1	< 100		< 0.1
Cc1cccc2cc(Cn3nc(C#C[C@@H](C)O)c4c(N)ncnc43)n(-c3ccccc3C(C)C)c(=O)c12	< 0.1	> 10	< 10	< 0.1
Cc1cccc2cc(Cn3nc(-c4cc(O)cc(F)c4)c4c(N)ncnc43)n(C3CCCCC3)c(=O)c12	< 0.1	> 10	< 10	< 1
Cc1cccnc1-n1c(Cn2nc(I)c3c(N)ncnc32)cc2cccc(C)c2c1=O		> 10		< 1
Cc1cccc2cc(Cn3nc(-c4ccc(F)c(O)c4)c4c(N)ncnc43)n(C(C)C)c(=O)c12	< 0.1	> 10	< 10	< 0.1

Structure (SMILES)	IC50 [1] [µM]	IC50 [2] [µM]	IC50 (PI3K p110 beta/p85 alpha) [µM]	EC50 [3] [µM]
Cc1cccc2cc(Cn3nc(I)c4c(N)ncnc43)n(-c3ccccc3C(C)C)c(=O)c12	< 0.1		< 10	< 0.1
Nc1ncnc2c1c(-c1cc(O)cc(F)c1)nn2Cc1cc2cccc(Cl)c2c(=O)n1C1CC1	< 0.1	< 100	< 0.1	< 0.1
Cc1cccc2cc(Cn3nc(-c4cc(O)cc(F)c4)c4c(N)ncnc43)n(C3CCCC3)c(=O)c12	< 0.1	< 10	< 10	< 0.1
CCn1c(Cn2nc(-c3ccc4nc(NC(C)=O)sc4c3)c3c(N)ncnc32)cc2cccc(C)c2c1=O	< 0.1	< 100	< 1	< 0.1
CCc1ccccc1-n1c(Cn2nc(I)c3c(N)ncnc32)cc2cccc(C)c2c1=O	< 0.1		< 10	< 1
CC(=O)Nc1nc2ccc(-c3nn(Cc4cc5cccc(C)c5c(=O)n4C(C)C)c4ncnc(N)c34)cc2s1	< 0.1	< 100	< 10	< 0.1
Cc1cccc2cc(Cn3nc(-c4cc(O)cc(F)c4)c4c(N)ncnc43)n(C3CCC3)c(=O)c12	< 0.1	< 10	< 10	< 0.1
Cc1ccccc1-n1c(Cn2nc(C#C[C@@H](C)O)c3c(N)ncnc32)cc2ccccc2c1=O	< 1	> 10		< 1
Cc1cccc2cc(Cn3nc(-c4cn[nH]c4)c4c(N)ncnc43)n(-c3ccccc3C(C)C)c(=O)c12	< 0.1	< 10	< 1	< 0.1
Cc1cccc2cc(C(C)Nc3ncnc4[nH]cnc34)n(-c3ccccc3F)c(=O)c12 (configuration not stated)	< 0.1		< 10	< 0.1
Cc1cccc2cc([C@H](C)Nc3ncnc4[nH]cnc34)n(-c3ccc(F)cc3)c(=O)c12			< 0.1	
Cc1ccccc1-n1c(Cn2nc(Br)c3c(N)ncnc32)cc2cccc(C)c2c1=O	< 0.1	> 10		< 1
Cc1cccnc1-n1c(Cn2nc(-c3cc(O)cc(F)c3)c3c(N)ncnc32)cc2cccc(C)c2c1=O	< 0.1	> 10		< 0.1
CC(C)n1c(Cn2nc(-c3cccc(O)c3)c3c(N)ncnc32)cc2ccccc2c1=O	< 0.1			< 1
CC(C)n1c(Cn2nc(-c3cc(O)cc(F)c3)c3c(N)ncnc32)cc2cccc(Cl)c2c1=O	< 0.1			< 0.1
Cc1cccc2cc([C@H](C)Nc3nc(Cl)nc4[nH]cnc34)n(C3CC3)c(=O)c12	< 0.1		< 0.1	
Cc1cccc2cc(C(C)Nc3ncnc4[nH]cnc34)n(-c3cccc(F)c3)c(=O)c12 (configuration not stated)	< 0.1			< 0.1

Now from value to compound, other results behind:

IC50 [1] [µM]	IC50 [2] [µM]	IC50 (PI3K p110 beta/p85 alpha) [µM]	Structure (SMILES)	EC50 [3] [µM]
< 0.1	> 10	< 1	Cc1cccc2cc(Cn3nc(-c4cccc(O)c4)c4c(N)ncnc43)n(C(C)C)c(=O)c12	< 0.1
< 0.1	> 10		Cc1ccccc1-n1c(Cn2nc(-c3ccc4cc[nH]c4c3)c3c(N)ncnc32)cc2cccc(C)c2c1=O	< 1
< 0.1	< 10	< 1	Cc1cccc2cc(Cn3nc(-c4cc(O)cc(F)c4)c4c(N)ncnc43)n(-c3ccccc3O)c(=O)c12	< 0.1
< 0.1	> 10	< 10	Cc1cccc2cc(Cn3nc(-c4cccc(O)c4)c4c(N)ncnc43)n(-c3ccccc3Cl)c(=O)c12	< 0.1
< 0.1	> 10	> 10	Cc1ccccc1-n1c(Cn2nc(-c3ccc(F)c(O)c3)c3c(N)ncnc32)cc2cccc(F)c2c1=O	
< 0.1	> 10	< 10	Cc1ccccc1-n1c(Cn2nc(-c3cn[nH]c3)c3c(N)ncnc32)cc2cccc(C)c2c1=O	< 0.1
< 0.1	> 10	> 10	Cc1cccc2cc(Cn3nc(-c4ccc(Cl)c(O)c4)c4c(N)ncnc43)n(-c3ccccc3F)c(=O)c12	< 1
< 0.1	> 10	< 10	Cc1ccccc1-n1c(Cn2nc(-c3ccc(F)c(O)c3)c3c(N)ncnc32)cc2cccc(C)c2c1=O	< 0.1
< 0.1	> 10	> 10	Cc1ccccc1-n1c(Cn2nc(-c3ccc(Cl)c(O)c3)c3c(N)ncnc32)cc2ccccc2c1=O	
< 1	> 10	> 10	COc1ccc(-c2nn(Cc3cc4cccc(C)c4c(=O)n3-c3ccccc3C)c3ncnc(N)c23)cc1OC	< 0.1
< 0.1	< 10	< 1	CCc1ccccc1-n1c(Cn2nc(-c3cc(O)cc(F)c3)c3c(N)ncnc32)cc2cccc(C)c2c1=O	< 0.1
< 0.1	> 10	< 10	COc1ccccc1-n1c(Cn2nc(-c3cccc(O)c3)c3c(N)ncnc32)cc2cccc(C)c2c1=O	< 0.1
< 0.1	< 10	< 1	Cc1cccc2cc(Cn3nc(-c4cc(O)cc(F)c4)c4c(N)ncnc43)n(-c3ccccc3Cl)c(=O)c12	< 0.1
< 0.1	> 10		Cc1ccccc1-n1c(Cn2nc(-c3ccc(O)c(F)c3)c3c(N)ncnc32)cc2cccc(C)c2c1=O	< 1
< 1	> 10	> 10	COc1cc(-c2nn(Cc3cc4cccc(C)c4c(=O)n3-c3ccccc3C)c3ncnc(N)c23)ccc1Cl	< 1
< 1	> 10	> 10	Cc1ccccc1-n1c(Cn2nc(-c3ccc(O)cc3)c3c(N)ncnc32)cc2cccc(C)c2c1=O	< 1
< 0.1	> 10	> 10	Cc1ccccc1-n1c(Cn2nc(-c3cccc(O)c3)c3c(N)ncnc32)cc2cccc(F)c2c1=O	
< 1	> 10		COc1ccc(-c2nn(Cc3cc4cccc(C)c4c(=O)n3-c3ccccc3C)c3ncnc(N)c23)cc1	< 1
< 10		> 10	Cc1cccc2cc(Cn3nc(-c4cccc(Cl)c4)c4c(N)ncnc43)n(-c3ccccc3F)c(=O)c12	> 10
< 0.1	> 10		Cc1ccccc1-n1c(Cn2nc(-c3cnc4[nH]ccc4c3)c3c(N)ncnc32)cc2cccc(C)c2c1=O	< 0.1
< 0.1	> 10		Cc1cccc2cc(Cn3nc(-c4cccc(O)c4)c4c(N)ncnc43)n(-c3ccccc3C(C)C)c(=O)c12	< 0.1

Reference: ChEMBL document CHEMBL3879901, “Substituted isoquinolin-1(2H)-ones, and methods of use thereof” (2012)
